Values quoted from earlier work as cited in patent US9265724B2, “Oral dosage form of tetrahydrocannabinol and a method of avoiding and/or suppressing hepatic first pass metabolism via targeted chylomicron/lipoprotein delivery” (priority 2005, dated 2016).

Experiments:
[1] = low aqueous solubility and high permeability

SMILES: CCCCCc1cc(O)c2c(c1)OC(C)(C)[C@@H]1CCC(C)=C[C@@H]21 [Δ^9-THC, Δ^9-tetrahydrocannabinol]
- biopharmaceutical classification system (BCS) class [1]: Class II
- absorbed (after a single oral dose): 90-95%
- continuation of appetite stimulant effect (after administration): ≥ 24 h
- duration of action for psychoactive effects (after oral administration): 4 to 6 h
- peak effect (after oral administration): 2 to 4 h
- administered dose that reaches systemic circulation (oral): 10-20%
- maximal plasma levels (oral dosing of 20 mg in a sesame oil formulation): around 10 ng/ml
